Assay results published in US12129235B2, “TSPO binders” (The University Court of the University of Glasgow, priority 2018, dated 2024).

Assay: Dosimetry from whole-body mouse PET, OLINDA/EXM adult human phantom
Type: in vivo, mice
Conditions: for Effective Dose / Estimated Absorbed Dose, Adrenals / Estimated Absorbed Dose, Brain / Estimated Absorbed Dose, Breasts / Estimated Absorbed Dose, Gallbladder Wall / Estimated Absorbed Dose, Heart Wall / Estimated Absorbed Dose, Kidneys / Estimated Absorbed Dose, LLI Wall / Estimated Absorbed Dose, Liver / Estimated Absorbed Dose, Lungs / Estimated Absorbed Dose, Muscle / Estimated Absorbed Dose, Osteogenic Cells / Estimated Absorbed Dose, Ovaries / Estimated Absorbed Dose, Pancreas / Estimated Absorbed Dose, Red Marrow / Estimated Absorbed Dose, Skin / Estimated Absorbed Dose, Small Intestine / Estimated Absorbed Dose, Spleen / Estimated Absorbed Dose, Stomach Wall / Estimated Absorbed Dose, Thymus / Estimated Absorbed Dose, Thyroid / Estimated Absorbed Dose, Total Body / Estimated Absorbed Dose, ULI Wall / Estimated Absorbed Dose, Urinary Bladder Wall / Estimated Absorbed Dose, Uterus / Estimated Absorbed Dose, Testes: adult human phantom
Experimental: 13 PET scans were performed with ^18F-LW223 (mean injected radioactivity of 19.55±2.1 MBq). Scans were acquired following i.v. bolus injection of ^18F-LW223 via tail vein or femoral vein shunt (invasive kinetic modelling experiments with β-probe automatic blood sampler) in rats. Test-retest scans were obtained in three rats following i.v. bolus of the radiotracer, with two weeks interval between test and retest imaging sessions. […] These scans were compared to baseline scans where no PK11195 was used. For displacement studies, rats received i.v. administration of ^18F-LW223 and scanned continuously for 120 min. […] A male and female mouse were initially used to derive the dosimetry estimates for ^18F-LW223 over a 4 h dynamic scan, followed by additional mice in a further study (in a study with a mean injected radioactivity of 10.83±5.6 MBq).
The following organs were identified as source organs: brain, heart, lungs, gallbladder, liver, gut, adrenals, kidneys and bladder. A whole-body VOI was drawn around the animal body and was used for quantification of whole-body remainder activity as whole-body activity minus source organs activity. At each time point, the measured activity of the source organs was expressed as the percent injected dose (% ID).
The residence time T, defined as the ratio of accumulated activity in the target organ (A) and injected activity (A0); τ=Ā/A0, was calculated as the area under the curve of the tissue time-activity curve normalized to % ID from time zero to infinity. The trapezoidal method was used for estimating T and after the last measured time point, it was assumed that the radiotracer underwent only physical decay with no biological elimination from the source organ. Calculated T were normalized for differences in mouse and human organ weights as a percentage of total body weight (based on data known from Khanuja et al.; Bielohuby et al.; Stabin et al.; Hindorf et al.; and Hui et al.), and entered into OLINDA/EXM 1.0 software, which was used to estimate organ doses and effective doses according to the male or female model implemented in OLINDA/EXM 1.0.

[1] = Female, additional work with further mice
[2] = Male, additional work with further mice

Effective Dose [1]: 2.37E−02 mSv/MBq | Estimated Absorbed Dose, Adrenals [1]: 3.54E−02 mGy/MBq | Estimated Absorbed Dose, Brain [1]: 5.49E−03 mGy/MBq | Estimated Absorbed Dose, Breasts [1]: 8.51E−03 mGy/MBq | Estimated Absorbed Dose, Gallbladder Wall [1]: 2.40E−02 mGy/MBq | Estimated Absorbed Dose, Heart Wall [1]: 1.80E−02 mGy/MBq | Estimated Absorbed Dose, Kidneys [1]: 1.48E−02 mGy/MBq | Estimated Absorbed Dose, LLI Wall [1]: 8.94E−02 mGy/MBq | Estimated Absorbed Dose, Liver [1]: 1.88E−02 mGy/MBq | Estimated Absorbed Dose, Lungs [1]: 3.10E−02 mGy/MBq | Estimated Absorbed Dose, Muscle [1]: 9.70E−03 mGy/MBq | Estimated Absorbed Dose, Osteogenic Cells [1]: 1.52E−02 mGy/MBq | Estimated Absorbed Dose, Ovaries [1]: 1.63E−02 mGy/MBq | Estimated Absorbed Dose, Pancreas [1]: 1.25E−02 mGy/MBq | Estimated Absorbed Dose, Red Marrow [1]: 9.72E−03 mGy/MBq | Estimated Absorbed Dose, Skin [1]: 7.33E−03 mGy/MBq | Estimated Absorbed Dose, Small Intestine [1]: 1.29E−02 mGy/MBq | Estimated Absorbed Dose, Spleen [1]: 1.10E−02 mGy/MBq | Estimated Absorbed Dose, Stomach Wall [1]: 1.14E−02 mGy/MBq | Estimated Absorbed Dose, Thymus [1]: 1.06E−02 mGy/MBq | Estimated Absorbed Dose, Thyroid [1]: 8.89E−03 mGy/MBq | Estimated Absorbed Dose, Total Body [1]: 1.06E−02 mGy/MBq | Estimated Absorbed Dose, ULI Wall [1]: 1.24E−02 mGy/MBq | Estimated Absorbed Dose, Urinary Bladder Wall [1]: 1.49E−02 mGy/MBq | Estimated Absorbed Dose, Uterus [1]: 1.28E−02 mGy/MBq | Effective Dose (Female, initial mouse study): 1.84E−02 mSv/MBq | Estimated Absorbed Dose, Adrenals (Female, initial mouse study): 4.38E−02 mGy/MBq | Estimated Absorbed Dose, Brain (Female, initial mouse study): 8.38E−03 mGy/MBq | Estimated Absorbed Dose, Breasts (Female, initial mouse study): 1.16E−02 mGy/MBq | Estimated Absorbed Dose, Gallbladder Wall (Female, initial mouse study): 2.80E−02 mGy/MBq | Estimated Absorbed Dose, Heart Wall (Female, initial mouse study): 3.96E−02 mGy/MBq | Estimated Absorbed Dose, Kidneys (Female, initial mouse study): 2.67E−02 mGy/MBq | Estimated Absorbed Dose, LLI Wall (Female, initial mouse study): 1.61E−02 mGy/MBq | Estimated Absorbed Dose, Liver (Female, initial mouse study): 2.04E−02 mGy/MBq | Estimated Absorbed Dose, Lungs (Female, initial mouse study): 4.52E−02 mGy/MBq | Estimated Absorbed Dose, Muscle (Female, initial mouse study): 1.27E−02 mGy/MBq | Estimated Absorbed Dose, Osteogenic Cells (Female, initial mouse study): 2.01E−02 mGy/MBq | Estimated Absorbed Dose, Ovaries (Female, initial mouse study): 1.71E−02 mGy/MBq | Estimated Absorbed Dose, Pancreas (Female, initial mouse study): 1.68E−02 mGy/MBq | Estimated Absorbed Dose, Red Marrow (Female, initial mouse study): 1.25E−02 mGy/MBq | Estimated Absorbed Dose, Skin (Female, initial mouse study): 9.71E−03 mGy/MBq | Estimated Absorbed Dose, Small Intestine (Female, initial mouse study): 3.97E−02 mGy/MBq | Estimated Absorbed Dose, Spleen (Female, initial mouse study): 1.51E−02 mGy/MBq | Estimated Absorbed Dose, Stomach Wall (Female, initial mouse study): 1.54E−02 mGy/MBq | Estimated Absorbed Dose, Thymus (Female, initial mouse study): 1.47E−02 mGy/MBq | Estimated Absorbed Dose, Thyroid (Female, initial mouse study): 1.19E−02 mGy/MBq | Estimated Absorbed Dose, Total Body (Female, initial mouse study): 1.40E−02 mGy/MBq | Estimated Absorbed Dose, ULI Wall (Female, initial mouse study): 1.89E−02 mGy/MBq | Estimated Absorbed Dose, Urinary Bladder Wall (Female, initial mouse study): 1.51E−02 mGy/MBq | Estimated Absorbed Dose, Uterus (Female, initial mouse study): 1.67E−02 mGy/MBq | Effective Dose [2]: 2.05E−02 mSv/MBq | Estimated Absorbed Dose, Adrenals [2]: 2.22E−02 mGy/MBq | Estimated Absorbed Dose, Brain [2]: 5.89E−03 mGy/MBq | Estimated Absorbed Dose, Breasts [2]: 7.18E−03 mGy/MBq | Estimated Absorbed Dose, Gallbladder Wall [2]: 2.01E−02 mGy/MBq | Estimated Absorbed Dose, Heart Wall [2]: 2.03E−02 mGy/MBq | Estimated Absorbed Dose, Kidneys [2]: 1.57E−02 mGy/MBq | Estimated Absorbed Dose, LLI Wall [2]: 7.82E−02 mGy/MBq | Estimated Absorbed Dose, Liver [2]: 1.30E−02 mGy/MBq | Estimated Absorbed Dose, Lungs [2]: 3.10E−02 mGy/MBq | Estimated Absorbed Dose, Muscle [2]: 8.04E−03 mGy/MBq | Estimated Absorbed Dose, Osteogenic Cells [2]: 1.20E−02 mGy/MBq | Estimated Absorbed Dose, Pancreas [2]: 1.03E−02 mGy/MBq | Estimated Absorbed Dose, Red Marrow [2]: 8.22E−03 mGy/MBq | Estimated Absorbed Dose, Skin [2]: 6.09E−03 mGy/MBq | Estimated Absorbed Dose, Small Intestine [2]: 1.11E−02 mGy/MBq | Estimated Absorbed Dose, Spleen [2]: 9.11E−03 mGy/MBq | Estimated Absorbed Dose, Stomach Wall [2]: 9.42E−03 mGy/MBq | Estimated Absorbed Dose, Testes [2]: 7.70E−03 mGy/MBq | Estimated Absorbed Dose, Thymus [2]: 8.97E−03 mGy/MBq | Estimated Absorbed Dose, Thyroid [2]: 7.90E−03 mGy/MBq | Estimated Absorbed Dose, Total Body [2]: 8.85E−03 mGy/MBq | Estimated Absorbed Dose, ULI Wall [2]: 9.96E−03 mGy/MBq | Estimated Absorbed Dose, Urinary Bladder Wall [2]: 1.16E−02 mGy/MBq | Effective Dose (Male, initial mouse study): 1.53E−02 mSv/MBq | Estimated Absorbed Dose, Adrenals (Male, initial mouse study): 3.72E−02 mGy/MBq | Estimated Absorbed Dose, Brain (Male, initial mouse study): 7.01E−03 mGy/MBq | Estimated Absorbed Dose, Breasts (Male, initial mouse study): 9.21E−03 mGy/MBq | Estimated Absorbed Dose, Gallbladder Wall (Male, initial mouse study): 2.42E−02 mGy/MBq | Estimated Absorbed Dose, Heart Wall (Male, initial mouse study): 3.07E−02 mGy/MBq | Estimated Absorbed Dose, Kidneys (Male, initial mouse study): 2.38E−02 mGy/MBq | Estimated Absorbed Dose, LLI Wall (Male, initial mouse study): 1.28E−02 mGy/MBq | Estimated Absorbed Dose, Liver (Male, initial mouse study): 1.56E−02 mGy/MBq | Estimated Absorbed Dose, Lungs (Male, initial mouse study): 3.57E−02 mGy/MBq | Estimated Absorbed Dose, Muscle (Male, initial mouse study): 1.02E−02 mGy/MBq | Estimated Absorbed Dose, Osteogenic Cells (Male, initial mouse study): 1.54E−02 mGy/MBq | Estimated Absorbed Dose, Ovaries (Male, initial mouse study): 1.40E−02 mGy/MBq | Estimated Absorbed Dose, Pancreas (Male, initial mouse study): 1.35E−02 mGy/MBq | Estimated Absorbed Dose, Red Marrow (Male, initial mouse study): 1.02E−02 mGy/MBq | Estimated Absorbed Dose, Skin (Male, initial mouse study): 7.82E−03 mGy/MBq | Estimated Absorbed Dose, Small Intestine (Male, initial mouse study): 3.38E−02 mGy/MBq | Estimated Absorbed Dose, Spleen (Male, initial mouse study): 1.19E−02 mGy/MBq | Estimated Absorbed Dose, Stomach Wall (Male, initial mouse study): 1.23E−02 mGy/MBq | Estimated Absorbed Dose, Testes (Male, initial mouse study): 9.46E−03 mGy/MBq | Estimated Absorbed Dose, Thymus (Male, initial mouse study): 1.16E−02 mGy/MBq | Estimated Absorbed Dose, Thyroid (Male, initial mouse study): 1.02E−02 mGy/MBq | Estimated Absorbed Dose, Total Body (Male, initial mouse study): 1.12E−02 mGy/MBq | Estimated Absorbed Dose, ULI Wall (Male, initial mouse study): 1.52E−02 mGy/MBq | Estimated Absorbed Dose, Urinary Bladder Wall (Male, initial mouse study): 1.37E−02 mGy/MBq | critical organ (additional work with further mice): lower intestinal wall | whole-body effective dose (female phantom, additional work with further mice (Table 2)): 23.7 μSv/MBq | whole-body effective dose (female phantom, initial mouse study (Table 1)): 18.4 μSv/MBq | critical organ (initial mouse study): adrenal gland | whole-body effective dose (male phantom, additional work with further mice (Table 2)): 20.5 μSv/MBq | whole-body effective dose (male phantom, initial mouse study (Table 1)): 15.3 μSv/MBq
SMILES: CC[C@@H](C)N(C)C(=O)c1nc2ccccc2c(-c2ccccc2)c1C[18F] [^18F-LW223, (R)-(N-sec-Butyl)-3-[19-fluoro]-methyl-N-methyl-4-phenylquinoline-2-carboxamide]
